In patent publication US6656920B2, “Composition and method for promoting oral health” (Amarillo Biosciences, Inc., priority 2000, dated 2003):

Key:
[1] = tested on: subjects with primary Sjögren's syndrome; assay: Phase 2 trial, 12 weeks, four dosages of IFN lozenges versus CAM placebo; format: in vivo, human; details: Phase 2, placebo (200 mg CAM) treated patients
Excerpt: (§1) The purposes of our investigations were to examine the safety and efficacy of four different dosages of IFN lozenges compared to placebo in subjects with primary Sjögren's syndrome over a 12-week period in a Phase 2 trial, and to examine the best dose from our Phase 2 trial in a 24-week Phase 3 trial. The primary endpoints of our Phase 2 and Phase 3 trials were measurements of unstimulated saliva and stimulated saliva and subjective assessments of dry mouth. The IFN-α was delivered to the patients in 200 mg lozenges consisting of crystalline anhydrous maltose (CAM). The placebo was 200 mg CAM without IFN in both (Phase 2 and Phase 3) clinical trials. […] The IFN-treated group did even better (73% and 81%, respectively), but the beneficial effect of CAM on UWS was striking. […] Not only will this benefit patients with Sjögren's syndrome, but CAM should benefit people with dry mouth from other causes.

[2] = tested on: subjects with primary Sjögren's syndrome; assay: Phase 3 trial, 24 weeks, IFN lozenges versus 200 mg CAM placebo lozenges; format: in vivo, human
Excerpt: as §1

[3] = tested on: subjects with Sjögren's syndrome; details: no sustained benefit in controlled clinical trials; cited from earlier work
[4] = tested on: subjects with Sjögren's syndrome; details: at 24 weeks, 30 subjects per group, p<0.001; cited from earlier work

Molecule: OC[C@H]1O[C@H](O[C@H]2[C@H](O)[C@@H](O)[C@H](O)O[C@@H]2CO)[C@H](O)[C@@H](O)[C@@H]1O [CAM, crystalline anhydrous maltose]
- patients with an increase in UWS by 12 weeks [1]: 9 of 18
- overall result of lozenge administration ([2]; 200 mg maltose lozenges three times daily): Good results
- patients with an increase in unstimulated whole saliva (UWS) ([2]; Phase 3, after 6 months of daily treatment, 200 mg lozenges): 63.3%

Molecule: CN(Cc1cc(Br)cc(Br)c1N)C1CCCCC1 [bromhexine]
- salivary output [3]: increase salivary output transiently

Molecule: CC1OC2(CS1)CN1CCC2CC1 (stereo not shown) [cevimeline]
- salivary output [3]: increase salivary output transiently

Molecule: CC[C@@H]1C(=O)OC[C@@H]1Cc1cncn1C [pilocarpine]
- salivary output [3]: increase salivary output transiently

Molecule: sucralfate
- subjects with ≧100% increase from baseline in stimulated whole salivary flow [4]: 3%
